The assay addresses T1, ORP2 (Homo sapiens, UniProt Q9H1P3).
T1 construct: ORP2(49-480); host or cells: E. coli BL21(DE3)
T1 sequence (Q9H1P3 49-480): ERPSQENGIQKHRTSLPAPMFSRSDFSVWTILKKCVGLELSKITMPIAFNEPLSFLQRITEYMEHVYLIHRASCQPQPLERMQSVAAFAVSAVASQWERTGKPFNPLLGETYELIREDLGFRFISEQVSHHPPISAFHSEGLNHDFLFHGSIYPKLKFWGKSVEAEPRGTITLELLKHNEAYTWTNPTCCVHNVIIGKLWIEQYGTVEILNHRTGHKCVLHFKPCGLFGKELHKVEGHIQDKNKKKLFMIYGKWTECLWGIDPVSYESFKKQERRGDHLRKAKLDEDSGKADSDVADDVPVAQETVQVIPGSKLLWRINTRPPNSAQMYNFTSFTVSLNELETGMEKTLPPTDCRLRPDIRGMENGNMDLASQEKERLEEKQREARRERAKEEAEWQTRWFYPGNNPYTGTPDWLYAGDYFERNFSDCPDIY
Description: Effect on intrinsic protein fluorescence, ORP2. To be noted: protein 1 µM, excitation 280 nm. The method, then:
Effect of spirooxepinoindoles on intrinsic protein fluorescence
Figure S12: Spirooxepinoindoles 21a and 15f affect intrinsic protein fluorescence in dose-dependent fashion:
Respective proteins (1 µM) were incubated with the compounds at different doses. Proteins were excited at 280 ± 10 nm and fluorescence spectra were measured from 315 ± 20 nm to 600 ± 20 nm with a step size of 2 nm. A) STARD1 and 21a. B) ORP1 and 21a. C) ORP2 and 21a. D) ORP2 and 15f.
(1 picture or pasted object on this page, not shown here)
Superdex 75 pg (Cytiva) using an ÄKTA Explorer (Cytiva) in buffer containing 10 mM Tris -HCl, pH 8, 150 mM NaCl, 5 % glycerol and 2 mM DTT.
Fluorescence intensity and polarisation
Fluorescence intensity and polarisation (FP) experiments were performed in a buffer containing 20 mM HEPES pH 7.5, 300 mM NaCl, 0.01 %v/v Tween-20, 0.5% glycerol and 2 mM DTT in a final volume of 30 µl in black, flat-bottom, non-binding 384-well plates (Corning). All compounds were dispensed using the LabCyte Echo 550 Liquid handler. […] For competition experiments, 20 nM 22-NBD-cholesterol or 80 nM 25-NBD-cholesterol was mixed with protein and incubated with desired concentrations of screening compounds (Table S4) The fluorescence polarisation signal was measured using a Spark Cyto multimode microplate reader (Tecan) with filters set at 485 ± 20 nm for excitation and at 535 ± 20 nm for emission. […]

As to `COc1ccc2c(c1)[C@@]13CC[C@@H]4C[C@@H](CC[C@@]41C)OC3=N2` [Compound 15f], the “Quenching of intrinsic fluorescence of ORP2” value is “quenches the ORP2 protein fluorescence in a dose-dependent manner”.

Take `C[C@]12CC[C@@H]3C[C@H]1CC[C@@]21C(=Nc2ccc(-c4ccccc4)cc21)O3` [Compound 21a]: the “Quenching of intrinsic fluorescence of ORP2” value was “dose-dependently quenches”.

The values are drawn from article PMC11758220, “Identification of a Privileged Scaffold for Inhibition of Sterol Transport Proteins through the Synthesis and Ring Distortion of Diverse, Pseudo-Natural Products” (ACS Central Science, 2025).
